Measured values from PubChem BioAssay AID226 (DTP/NCI, 2004).
Where “and” joins values, the source holds several entries; their conditions need not be identical. Identical values can stand only once. Inconclusive results and toxic doses are left out.

Tested on: B6C3F1 mice, intracerebral ependymoblastoma, median survival T/C
Assay: NCI In Vivo Anticancer Drug Screen. Data for tumor model Ependymoblastoma (intracerebral) in B6C3F1 mice
Settings: endpoint: median survival time, higher = longer survival
Experimental: The antitumor activity of compounds was measured in mice bearing transplantable tumors. Survival or tumor size were measured and the results are expressed as the measurement made in the treated group (T) divided by the measurement made in the vehicle treated control group (C). The tumor model used in this assay is Ependymoblastoma (intracerebral) in B6C3F1 mice

[1] = dose: 32.0 mg/kg/injection, schedule: Q01DX005 (ip), vehicle: saline
[2] = dose: 64.0 mg/kg/injection, schedule: Q01DX005 (ip), vehicle: saline
[3] = dose: 128.0 mg/kg/injection, schedule: Q01DX005 (ip), vehicle: saline
[4] = dose: 50.0 mg/kg/injection, schedule: Q01DX005 (ip), vehicle: Klucel (hydroxypropylcellulose) (HPC)
[5] = dose: 100.0 mg/kg/injection, schedule: Q01DX005 (ip), vehicle: Klucel (hydroxypropylcellulose) (HPC)
[6] = dose: 200.0 mg/kg/injection, schedule: Q01DX005 (ip), vehicle: Klucel (hydroxypropylcellulose) (HPC)
[7] = dose: 3.12 mg/kg/injection, schedule: Q01DX005 (ip), vehicle: saline with Tween-80
[8] = dose: 6.25 mg/kg/injection, schedule: Q01DX005 (ip), vehicle: saline with Tween-80
[9] = dose: 25.0 mg/kg/injection, schedule: Q01DX005 (ip), vehicle: saline with Tween-80
[10] = dose: 12.5 mg/kg/injection, schedule: Q01DX005 (ip), vehicle: Klucel (hydroxypropylcellulose) (HPC)
[11] = dose: 25.0 mg/kg/injection, schedule: Q01DX005 (ip), vehicle: Klucel (hydroxypropylcellulose) (HPC)
[12] = dose: 400.0 mg/kg/injection, schedule: Q01DX005 (ip), vehicle: Klucel (hydroxypropylcellulose) (HPC)
[13] = dose: 8.0 mg/kg/injection, schedule: Q01DX005 (ip), vehicle: saline
[14] = dose: 16.0 mg/kg/injection, schedule: Q01DX005 (ip), vehicle: saline

SMILES: CC(C)[C@](O)(C(=O)OCC1=CC[N+]2([O-])CC[C@@H](O)[C@@H]12)[C@H](C)O (stereo partly specified)
- T/C [1]: 104 % of control
- T/C [2]: 98 % of control and 101 % of control
- T/C [3]: 95 % of control and 100 % of control
- T/C (dose: 256.0 mg/kg/injection, schedule: Q01DX005 (ip), vehicle: saline): 103 % of control and 108 % of control
- T/C (dose: 512.0 mg/kg/injection, schedule: Q01DX005 (ip), vehicle: saline): 94 % of control and 117 % of control

SMILES: O=[N+]([O-])O.[Ga]
- T/C [1]: 107 % of control
- T/C [2]: 100 % of control
- T/C [3]: 105 % of control

SMILES: CC(=O)OCC1OC(n2ccc(N)nc2=O)C(OC(C)=O)C1OC(C)=O (stereo unspecified)
- T/C [4]: 98 % of control
- T/C [5]: 102 % of control
- T/C [6]: 117 % of control

SMILES: Nc1nc(SCc2ccccc2F)c2ncn(C3OC(CO)C(O)C3O)c2n1 (stereo unspecified)
- T/C (dose: 0.78 mg/kg/injection, schedule: Q01DX005 (ip), vehicle: saline with Tween-80): 101 % of control and 103 % of control
- T/C (dose: 1.56 mg/kg/injection, schedule: Q01DX005 (ip), vehicle: saline with Tween-80): 100 % of control and 109 % of control
- T/C [7]: 93 % of control and 96 % of control
- T/C [8]: 91 % of control and 104 % of control and 120 % of control
- T/C (dose: 12.5 mg/kg/injection, schedule: Q01DX005 (ip), vehicle: saline with Tween-80): 99 % of control
- T/C [9]: 122 % of control

SMILES: O=C(O)c1ccc(C(=O)O)c(C(=O)O)c1.[NH-]C1CCCCC1[NH-].[Pt+2]
- T/C (dose: 0.25 mg/kg/injection, schedule: Q01DX005 (ip), vehicle: dextrose): 92 % of control and 101 % of control
- T/C (dose: 0.5 mg/kg/injection, schedule: Q01DX005 (ip), vehicle: dextrose): 100 % of control and 118 % of control
- T/C (dose: 1.0 mg/kg/injection, schedule: Q01DX005 (ip), vehicle: dextrose): 95 % of control and 100 % of control
- T/C (dose: 2.0 mg/kg/injection, schedule: Q01DX005 (ip), vehicle: dextrose): 100 % of control and 105 % of control
- T/C (dose: 4.0 mg/kg/injection, schedule: Q01DX005 (ip), vehicle: dextrose): 98 % of control and 114 % of control

SMILES: O=c1n(CC2CO2)c(=O)n(CC2CO2)c(=O)n1CC1CO1 (stereo unspecified)
- T/C (dose: 16.4 mg/kg/injection, schedule: Q01DX004 (ip), vehicle: saline): 113 % of control
- T/C (dose: 16.4 mg/kg/injection, schedule: Q01DX009 (ip), vehicle: saline): 107 % of control
- T/C (dose: 20.0 mg/kg/injection, schedule: Q01DX009 (ip), vehicle: saline): 117 % of control and 119 % of control
- T/C (dose: 20.5 mg/kg/injection, schedule: Q01DX004 (ip), vehicle: saline): 111 % of control
- T/C (dose: 20.5 mg/kg/injection, schedule: Q01DX009 (ip), vehicle: saline): 112 % of control
- T/C [9]: 98 % of control
- T/C (dose: 25.6 mg/kg/injection, schedule: Q01DX004 (ip), vehicle: saline): 107 % of control
- T/C (dose: 25.6 mg/kg/injection, schedule: Q01DX009 (ip), vehicle: saline): 113 % of control
- T/C (dose: 30.0 mg/kg/injection, schedule: Q01DX009 (ip), vehicle: saline): 165 % of control
- T/C (dose: 32.0 mg/kg/injection, schedule: Q01DX004 (ip), vehicle: saline): 115 % of control
- T/C (dose: 32.0 mg/kg/injection, schedule: Q01DX009 (ip), vehicle: saline): 121 % of control
- T/C (dose: 49.2 mg/kg/injection, schedule: Q01DX001 (ip), vehicle: saline): 95 % of control
- T/C (dose: 50.0 mg/kg/injection, schedule: Q01DX009 (ip), vehicle: saline): 113 % of control
- T/C (dose: 61.4 mg/kg/injection, schedule: Q01DX001 (ip), vehicle: saline): 109 % of control
- T/C (dose: 76.8 mg/kg/injection, schedule: Q01DX001 (ip), vehicle: saline): 112 % of control
- T/C (dose: 96.0 mg/kg/injection, schedule: Q01DX001 (ip), vehicle: saline): 106 % of control
- T/C (dose: 120.0 mg/kg/injection, schedule: Q01DX001 (ip), vehicle: saline): 121 % of control
- T/C (dose: 150.0 mg/kg/injection, schedule: Q01DX001 (ip), vehicle: saline): 119 % of control

SMILES: COc1ccc2c(c1OC(C)=O)-c1cc(OC(C)=O)cc3c1C(C2)N(C(=O)CN(CCCl)CCCl)CC3 (stereo unspecified)
- T/C (dose: 12.5 mg/kg/injection, schedule: Q01DX005 (ip), vehicle: DMSO): 108 % of control

SMILES: CCC(=O)NC1=C(N2CC2C)C(=O)C(NC(=O)CC)=C(N2CC2C)C1=O (stereo unspecified)
- T/C (dose: 0.78 mg/kg/injection, schedule: Q01DX009 (ip), vehicle: Klucel (hydroxypropylcellulose) (HPC)): 105 % of control
- T/C (dose: 1.56 mg/kg/injection, schedule: Q01DX009 (ip), vehicle: Klucel (hydroxypropylcellulose) (HPC)): 110 % of control
- T/C (dose: 3.12 mg/kg/injection, schedule: Q01DX009 (ip), vehicle: Klucel (hydroxypropylcellulose) (HPC)): 106 % of control
- T/C (dose: 6.25 mg/kg/injection, schedule: Q01DX009 (ip), vehicle: Klucel (hydroxypropylcellulose) (HPC)): 105 % of control

SMILES: Nc1ccn(C2OC(COC(=O)C34CC5CC(CC(C5)C3)C4)C(O)C2O)c(=O)n1 (stereo unspecified)
- T/C (dose: 6.25 mg/kg/injection, schedule: Q01DX005 (ip), vehicle: Klucel (hydroxypropylcellulose) (HPC)): 98 % of control and 105 % of control
- T/C [10]: 100 % of control and 105 % of control
- T/C [11]: 104 % of control and 116 % of control
- T/C [4]: 109 % of control

SMILES: CC(=O)Nc1ccc(/C=N/NC(N)=S)cc1
- T/C [4]: 93 % of control
- T/C [5]: 91 % of control
- T/C [6]: 90 % of control
- T/C [12]: 91 % of control
- T/C (dose: 800.0 mg/kg/injection, schedule: Q01DX005 (ip), vehicle: Klucel (hydroxypropylcellulose) (HPC)): 112 % of control

SMILES: CN(C)/N=N/c1nc[nH]c1C(N)=O
- T/C [7]: 120 % of control
- T/C [8]: 114 % of control
- T/C [10]: 115 % of control
- T/C (dose: 16.0 mg/kg/injection, schedule: Q01DX005 (ip), vehicle: saline with Tween-80): 111 % of control
- T/C [11]: 114 % of control
- T/C [4]: 120 % of control
- T/C (dose: 100.0 mg/kg/injection, schedule: Q01DX005 (ip), vehicle: saline with Tween-80): 156 % of control
- T/C (dose: 128.0 mg/kg/injection, schedule: Q01DX005 (ip), vehicle: saline with Tween-80): 155 % of control

SMILES: N[C@H](C(=O)O)[C@@H]1CC(Cl)=NO1
- T/C (dose: 1.0 mg/kg/injection, schedule: Q01DX005 (ip), vehicle: saline + Tween-80 + alcohol): 112 % of control
- T/C (dose: 2.0 mg/kg/injection, schedule: Q01DX005 (ip), vehicle: saline + Tween-80 + alcohol): 106 % of control
- T/C (dose: 2.0 mg/kg/injection, schedule: Q01DX005 (ip), vehicle: saline): 97 % of control and 111 % of control
- T/C (dose: 4.0 mg/kg/injection, schedule: Q01DX005 (ip), vehicle: saline + Tween-80 + alcohol): 114 % of control
- T/C (dose: 4.0 mg/kg/injection, schedule: Q01DX005 (ip), vehicle: saline): 104 % of control and 121 % of control
- T/C (dose: 8.0 mg/kg/injection, schedule: Q01DX005 (ip), vehicle: saline + Tween-80 + alcohol): 118 % of control
- T/C [13]: 111 % of control and 117 % of control
- T/C (dose: 16.0 mg/kg/injection, schedule: Q01DX005 (ip), vehicle: saline + Tween-80 + alcohol): 89 % of control
- T/C [14]: 109 % of control and 124 % of control
- T/C [1]: 111 % of control

SMILES: COc1ccc(C[C@H](N)C(=O)NC2C(CO)OC(n3cnc4c(N(C)C)ncnc43)C2O)cc1 (stereo partly specified)
- T/C [13]: 101 % of control
- T/C [14]: 101 % of control
- T/C [1]: 103 % of control
- T/C [2]: 94 % of control
- T/C [3]: 102 % of control

SMILES: ClC1C(Cl)C(Cl)C(Cl)C(Cl)C1Cl (stereo unspecified)
- T/C [10]: 100 % of control
- T/C [11]: 107 % of control and 108 % of control
- T/C [4]: 95 % of control and 102 % of control
- T/C [5]: 117 % of control and 118 % of control
- T/C [6]: 98 % of control and 107 % of control
- T/C [12]: 107 % of control

SMILES: O=NN(CCF)C(=O)NC1C(O)CCCC1O (stereo unspecified)
- T/C (dose: 5.18 mg/kg/injection, schedule: Q01DX005 (ip), vehicle: Klucel (hydroxypropylcellulose) (HPC)): 189 % of control
- T/C (dose: 8.64 mg/kg/injection, schedule: Q01DX005 (ip), vehicle: Klucel (hydroxypropylcellulose) (HPC)): 230 % of control
- T/C (dose: 13.0 mg/kg/injection, schedule: Q01DX001 (ip), vehicle: saline): 115 % of control
- T/C (dose: 14.4 mg/kg/injection, schedule: Q01DX005 (ip), vehicle: Klucel (hydroxypropylcellulose) (HPC)): 357 % of control
- T/C (dose: 24.0 mg/kg/injection, schedule: Q01DX005 (ip), vehicle: Klucel (hydroxypropylcellulose) (HPC)): 111 % of control
- T/C (dose: 36.0 mg/kg/injection, schedule: Q01DX001 (ip), vehicle: saline): 159 % of control
- T/C (dose: 60.0 mg/kg/injection, schedule: Q01DX001 (ip), vehicle: saline): 247 % of control
- T/C (dose: 100.0 mg/kg/injection, schedule: Q01DX001 (ip), vehicle: saline): 157 % of control
